Results published in patent US10800741B2 (ANCUREALL PHARMACEUTICAL (SHANGHAI) CO., LTD., priority 2017, dated 2020).
Where two headings read alike, the source gives them in different places.

Assays:
Assay type in all cases: cell-based, Human
[1] = system: Hep3B2 (FGFR3/4+++); experiment: In vitro growth inhibition of Hep3B2 tumor cells (MTT/CCK8); conditions: Homo sapiens, Hep3B, read-out: IC50 Hep3B2 (FGFR3/4+++)
[2] = system: H1703 (PDGFRa amp); experiment: In vitro growth inhibition of H1703 tumor cells (MTT/CCK8); conditions: Homo sapiens
[3] = system: Kasumi-1 (KIT N822K); experiment: In vitro growth inhibition of Kasumi-1 tumor cells (MTT/CCK8); conditions: Homo sapiens
[4] = system: H1581 (FGFR1 amp); experiment: In vitro growth inhibition of H1581 tumor cells (MTT/CCK8); conditions: Homo sapiens
[5] = system: KCL-22 (BCR-ABL); experiment: In vitro growth inhibition of KCL-22 tumor cells (MTT/CCK8); conditions: Homo sapiens
[6] = system: MOLM-13 (FLT3-ITD); experiment: In vitro growth inhibition of MOLM-13 tumor cells (MTT/CCK8); conditions: Homo sapiens
[7] = system: KATO III (FGFR2 amp); experiment: In vitro growth inhibition of KATO III tumor cells (MTT/CCK8); conditions: Homo sapiens, KATO III, read-out: IC50 KATO III (FGFR2 amp)
[8] = system: Karpas 299 (NPM-ALK); experiment: In vitro growth inhibition of Karpas 299 tumor cells (MTT/CCK8); conditions: Homo sapiens
[9] = in vitro growth inhibition (or induction of apoptosis), cells cultured 3 to 5 days, MTT (CCK8)
[10] = NCI-H1703, in vitro growth inhibition (or induction of apoptosis), cells cultured 3 to 5 days, MTT (CCK8), read-out: IC50 H1703 (PDGFRa amp)
[11] = Kasumi 1, in vitro growth inhibition (or induction of apoptosis), cells cultured 3 to 5 days, MTT (CCK8), read-out: IC50 Kasumi-1 (KIT N822K)
[12] = NCI-H1581, in vitro growth inhibition (or induction of apoptosis), cells cultured 3 to 5 days, MTT (CCK8), read-out: IC50 H1581 (FGFR1 amp)
[13] = KCL-22, in vitro growth inhibition (or induction of apoptosis), cells cultured 3 to 5 days, MTT (CCK8), read-out: IC50 KCL-22 (BCR-ABL)
[14] = MOLM-13, in vitro growth inhibition (or induction of apoptosis), cells cultured 3 to 5 days, MTT (CCK8), read-out: IC50 MOLM-13 (FLT3-ITD)
[15] = KARPAS-299, in vitro growth inhibition (or induction of apoptosis), cells cultured 3 to 5 days, MTT (CCK8), read-out: IC50 Karpas 299 (NPM-ALK)

IC50 [1, 9]	IC50 [2, 10]	IC50 [3, 11]	IC50 [4, 12]	IC50 [5, 13]	IC50 [6, 14]	IC50 [7, 9]	IC50 [8, 15]	SMILES	IC50 [1]	IC50 ([2]; NCI-H1703, read-out: IC50 H1703 (PDGFRa amp))	IC50 ([3]; Kasumi 1, read-out: IC50 Kasumi-1 (KIT N822K))	IC50 ([4]; NCI-H1581, read-out: IC50 H1581 (FGFR1 amp))	IC50 ([5]; KCL-22, read-out: IC50 KCL-22 (BCR-ABL))	IC50 ([6]; MOLM-13, read-out: IC50 MOLM-13 (FLT3-ITD))	IC50 [7]	IC50 ([8]; KARPAS-299, read-out: IC50 Karpas 299 (NPM-ALK))
157 nM	83.3 nM	91.8 nM	79.9 nM	57 nM	1.16 nM	2.96 nM	160 nM	CNC(=O)c1cc2c(Oc3ccc(NC(=O)Nc4cc(C(C)(C)C)nn4C)cc3Cl)ccnc2cc1OC [Compound 55, 4-{4-[3-(5-tert-butyl-2-methyl-2H-pyrazol-3-yl)-ureido]-2-chloro-phenoxy}-7-methoxy quinolin-6-carboxylic acid methylamide]	–	–	–	–	–	–	–	–
17.6 nM	18.9 nM	1.07 nM	3.66 nM	1.4 nM	2.87 nM	0.28 nM	39.2 nM	CNC(=O)c1cc2c(Oc3ccc(NC(=O)Nc4cc(C(C)(C)C)n[nH]4)c(Cl)c3Cl)ccnc2cc1OC [Compound 56, 4-{4-[3-(5-tert-butyl-2H-pyrazol-3-yl)-ureido]-2,3-dichloro-phenoxy}-7-methoxyquinol in-6-carboxylic acid methylamide]	–	–	–	–	–	–	–	–
21.9 nM	11.7 nM	3 nM	2.85 nM	2.58 nM	1.29 nM	0.41 nM	69.3 nM	CNC(=O)c1cc2c(Oc3ccc(NC(=O)Nc4cc(C(C)(C)C)nn4C)c(Cl)c3Cl)ccnc2cc1OC [Compound 57, 4-{4-[3-(5-tert-butyl-2-methyl-2H-pyrazol-3-yl)-ureido]-2,3-dichloro-phenoxy}-7-methoxyquinolin-6-carboxylic acid methylamide]	–	–	–	–	–	–	–	–
18.2 nM	14.8 nM	10.3 nM	5.5 nM	3.11 nM	2.33 nM	0.58 nM	417 nM	CNC(=O)c1cc2c(Oc3ccc(NC(=O)Nc4cc(C(C)(C)C)n[nH]4)c(Cl)c3)ccnc2cc1OCCOC [Compound 58, 4-{4-[3-(5-tert-butyl-2H-pyrazol-3-yl)-ureido]-3-chloro-phenoxy}-7-(2-methoxy-ethoxy)-quinolin-6-carboxylic acid methylamide]	–	–	–	–	–	–	–	–
19.4 nM	8.17 nM	1.95 nM	5.05 nM	9.62 nM	2.95 nM	0.11 nM	195 nM	CNC(=O)c1cc2c(Oc3ccc(NC(=O)Nc4cc(C(C)(C)C)nn4C)c(Cl)c3)ccnc2cc1OCCOC [Compound 59, 4-{4-[3-(5-tert-butyl-2-methyl-2H-pyrazol-3-yl)-ureido]-3-chloro-phenoxy}-7-(2-methoxy-ethoxy)-quinolin-6-carboxylic acid methylamide]	–	–	–	–	–	–	–	–
5.2 nM	6.71 nM	0.493 nM	1.31 nM	1.05 nM	0.89 nM	0.36 nM	12.4 nM	CNC(=O)c1cc2c(Oc3ccc(NC(=O)Nc4cc(C(C)(C)C)nn4C)c(Cl)c3Cl)ccnc2cc1OCCOC [Compound 60, 4-{4-[3-(5-tert-butyl-2-methyl-2H-pyrazol-3-yl)-ureido]-2,3-dichloro-phenoxy}-7-(2-methoxy-ethoxy)-quinolin-6-carboxylic acid methylamide]	–	–	–	–	–	–	–	–
368 nM	75.8 nM	571 nM	133 nM	599 nM	61.4 nM	18.4 nM	606 nM	COc1cc2nccc(Oc3ccc(NC(=O)Nc4cc(C(C)(C)C)n[nH]4)c(Cl)c3)c2cc1C(=O)N(C)C [Compound 61]	–	–	–	–	–	–	–	–
73.2 nM	93.1 nM	47.5 nM	13.7 nM	25.8 nM	7.83 nM	1.89 nM	312 nM	COCCNC(=O)c1cc2c(Oc3ccc(NC(=O)Nc4cc(C(C)(C)C)n[nH]4)c(Cl)c3)ccnc2cc1OC [Compound 62, 4-{4-[3-(5-tert-butyl-2H-pyrazol-3-yl)-ureido]-3-chloro-phenoxy}-7-methoxyquinolin-6-carboxylic acid (2-methoxy-ethyl)-amide]	–	–	–	–	–	–	–	–
15.9 nM	12 nM	8.81 nM	4.26 nM	4.68 nM	3.12 nM	0.31 nM	113 nM	COc1cc2nccc(Oc3ccc(NC(=O)Nc4cc(C(C)(C)C)n[nH]4)c(Cl)c3)c2cc1NC(C)=O [Compound 63, N-(4-{4-[3-(5-tert-butyl-2H-pyrazol-3-yl)-ureido]-3-chloro-phenoxy}-7-methoxyquinolin-6-yl)-acetamide]	–	–	–	–	–	–	–	–
19 nM	13.1 nM	34.2 nM	8.64 nM	17.4 nM	8.78 nM	0.63 nM	186 nM	CCC(=O)Nc1cc2c(Oc3ccc(NC(=O)Nc4cc(C(C)(C)C)n[nH]4)c(Cl)c3)ccnc2cc1OC [Compound 64, N-(4-{4-[3-(5-tert-butyl-2H-pyrazol-3-yl)-ureido]-3-chloro-phenoxy}-7-methoxyquinolin-6-yl)-propionamide]	–	–	–	–	–	–	–	–
160 nM	247 nM	568 nM	218 nM	163 nM	72 nM	11 nM	> 1000 nM	COc1cc2nccc(Oc3ccc(NC(=O)Nc4cc(C(C)(C)C)n[nH]4)c(Cl)c3)c2cc1NC(=O)C1CCCC1 [Compound 65, cyclopentane carboxylic acid (4-{4-[3-(5-tert-butyl-2H-pyrazol-3-yl)-ureido]-3-chloro-phenoxy}-7-methoxy-quinolin-6-yl)-amide]	–	–	–	–	–	–	–	–
270 nM	436 nM	24.8 nM	164 nM	19.2 nM	72.2 nM	6.83 nM	863 nM	COc1cc2nccc(Oc3ccc(NC(=O)Nc4cc(C(C)(C)C)n[nH]4)c(Cl)c3)c2cc1C#N [Compound 67, 1-(5-tert-butyl-2H-pyrazol-3-yl)-3-[2-chloro-4-(6-cyano-7-methoxy-quinolin-4-yloxy)-phenyl]-urea]	–	–	–	–	–	–	–	–
> 1000 nM	> 1000 nM	> 1000 nM	> 1000 nM	> 1000 nM	> 1000 nM	> 1000 nM	> 1000 nM	CCOc1cc2ncc(C#N)c(Oc3ccc(NC(=O)Nc4cc(C(C)(C)C)n[nH]4)c(Cl)c3)c2cc1NC(C)=O [Compound 68, N-(4-{4-[3-(5-tert-butyl-2H-pyrazol-3-yl)-ureido]-3-chloro-phenoxy}-3-cyano-7-ethoxy-quinolin-6-yl) acetamide]	–	–	–	–	–	–	–	–
> 1000 nM	> 1000 nM	> 1000 nM	> 1000 nM	> 1000 nM	> 1000 nM	> 1000 nM	> 1000 nM	CCC(=O)N1CCC(NC(=O)Nc2ccc(Oc3ccnc4cc(OC)c(C(N)=O)cc34)cc2Cl)C1 (stereo not shown) [Compound 69, 4-{3-chloro-4-[3-(1-propionyl-pyrrolidin-3-yl)-ureido]-phenoxy}-7-methoxyquinolin-6-carboxamide]	–	–	–	–	–	–	–	–
> 1000 nM	> 1000 nM	> 1000 nM	> 1000 nM	> 1000 nM	> 1000 nM	> 1000 nM	> 1000 nM	C=CC(=O)N1CCC(NC(=O)Nc2ccc(Oc3ccnc4cc(OC)c(C(N)=O)cc34)cc2Cl)C1 (stereo not shown) [Compound 70, 4-{3-chloro-4-[3-(1-acryloylpyrrolidin-3-yl)-ureido]-phenoxy}-7-methoxyquinolin-6-carboxamide]	–	–	–	–	–	–	–	–
> 1000 nM	> 1000 nM	> 1000 nM	> 1000 nM	≥ 1000 nM	> 1000 nM	> 1000 nM	> 1000 nM	CCN1CCN(c2ccc(Nc3cc(NC(=O)Nc4ccc(Oc5ccnc6cc(OC)c(C(N)=O)cc56)c(Cl)c4Cl)ncn3)cc2)CC1 [Compound 71]	–	–	–	–	–	–	–	–
–	–	–	–	–	–	–	–	CNC(=O)c1cc2c(Oc3ccc(NC(=O)n4nc(C(C)(C)C)cc4N)c(Cl)c3)ccnc2cc1OC [Compound 72]	159 nM	250 nM	137 nM	165 nM	117 nM	50.8 nM	6.18 nM	736 nM
